Assays:
[1] = test system: Smn protein in SMA patient fibroblast cells (GM03813); experiment: Smn protein assay in cultured cells (SMN HTRF); type: cell-based, human; conditions: SMA patient fibroblast cells, 48 hours; for maximum fold (Fold) increase of Smn protein: 7-point concentration data, fold relative to vehicle control; for EC1.5x for Smn protein expression: 7-point concentration curve, SMN HTRF, concentration producing 1.5 times Smn protein vs DMSO vehicle control
How it was run: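 Cells were cultured 72 h, seeded at 5,000/well and dosed with seven concentrations (3.16-fold apart) for 48 h. HTRF on lysates, read at 665 and 620 nm, gave blank-corrected ΔF values relative to DMSO. Potency is reported as EC1.5×, efficacy as maximal fold Smn increase.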

[2] = test system: SMN2 minigene mRNA (SMN2-A minigene) in HEK293H cells; experiment: SMN2 minigene mRNA splicing RT-qPCR assay in cultured cells; type: cell-based, human; conditions: Homo sapiens, HEK293-H; concentration increasing full length SMN2 mRNA 1.5-fold relative to vehicle-treated cells; HEK293H cells with SMN2-A minigene, 24 hours, 7-point concentration data; read-out: EC1.5x for production of full length SMN2 mRNA
How it was run: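 EC1.5× values derive from a 24 h treatment of SMN2-A minigene HEK293H cells and GAPDH-normalized RT-qPCR of exon 7-included minigene mRNA relative to vehicle-treated cells.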

Structure (SMILES)	melting point [°C]	maximum fold (Fold) increase of Smn protein [1]	EC (1.5-fold increase) [2] [µM]	EC1.5x for Smn protein expression [1]
COc1ccc(-c2cc(=O)n3cc(N4CCN[C@H](C)C4)ccc3n2)cc1OC [Compound 8, 2-(3,4-dimethoxyphenyl)-7-[(3R)-3-methylpiperazin-1-yl]-4H-pyrido[1,2-a]pyrimidin-4-one]	181 to 184	**** (a fold increase between >1.5 and ≤1.65 is indicated by four stars (****))	0.1 to 0.3	** (an EC1.5× between >1 μM and ≤3 μM is indicated by two stars (**))
COc1ccc(-c2cc(=O)n3cc(N4CCCN(C)CC4)ccc3n2)cc1OC [Compound 11, 2-(3,4-dimethoxyphenyl)-7-(4-methyl-1,4-diazepan-1-yl)-4H-pyrido[1,2-a]pyrimidin-4-one]	166 to 168	*** (a fold increase between >1.35 and ≤1.5 is indicated by three stars (***))	0.3 to 1	
COc1ccc(-c2cc(=O)n3cc(N4CCN[C@@H](C)C4)ccc3n2)cc1 [Compound 12, 2-(4-methoxyphenyl)-7-[(3S)-3-methylpiperazin-1-yl]-4H-pyrido[1,2-a]pyrimidin-4-one]	158 to 160	*** (a fold increase between >1.35 and ≤1.5 is indicated by three stars (***))	0.3 to 1	
COc1ccc(-c2cc(=O)n3cc(N4CCN(C)CC4)ccc3n2)cc1OC [Compound 13, 2-(3,4-dimethoxyphenyl)-7-(4-methylpiperazin-1-yl)-4H-pyrido[1,2-a]pyrimidin-4-one]	183 to 185	** (a fold increase between >1.2 and ≤1.35 is indicated by two stars (**))	1 to 3	
COc1ccc(-c2cc(=O)n3cc(N4C[C@@H](C)N[C@@H](C)C4)ccc3n2)cc1OC [Compound 14, 2-(3,4-dimethoxyphenyl)-7-[(3R,5S)-3,5-dimethylpiperazin-1-yl]-4H-pyrido[1,2-a]pyrimidin-4-one]	182 to 187	*** (a fold increase between >1.35 and ≤1.5 is indicated by three stars (***))	1 to 3	
CCCN1CCN(c2ccc3nc(-c4ccc(OC)c(OC)c4)cc(=O)n3c2)CC1 [Compound 15, 2-(3,4-dimethoxyphenyl)-7-(4-propylpiperazin-1-yl)-4H-pyrido[1,2-a]pyrimidin-4-one]	185 to 189	*** (a fold increase between >1.35 and ≤1.5 is indicated by three stars (***))	1 to 3	
O=c1cc(-c2ccc3c(c2)OCO3)nc2ccc(N3CCNCC3)cn12 [Compound 18, 2-(1,3-benzodioxol-5-yl)-7-(piperazin-1-yl)-4H-pyrido[1,2-a]pyrimidin-4-one]	198 to 201	**** (a fold increase between >1.5 and ≤1.65 is indicated by four stars (****))	0.3 to 1	** (an EC1.5× between >1 μM and ≤3 μM is indicated by two stars (**))
CN1CCN(c2ccc3nc(-c4ccc5c(c4)OCO5)cc(=O)n3c2)CC1 [Compound 19, 2-(1,3-benzodioxol-5-yl)-7-(4-methylpiperazin-1-yl)-4H-pyrido[1,2-a]pyrimidin-4-one]	235 to 237	** (a fold increase between >1.2 and ≤1.35 is indicated by two stars (**))	1 to 3	
CCN1CCN(c2ccc3nc(-c4cccc(OC)c4)cc(=O)n3c2)CC1 [Compound 26, 7-(4-ethylpiperazin-1-yl)-2-(3-methoxyphenyl)-4H-pyrido[1,2-a]pyrimidin-4-one]	158 to 160	** (a fold increase between >1.2 and ≤1.35 is indicated by two stars (**))	3 to 30	
COc1cccc(-c2cc(=O)n3cc(N4CCCN(C)CC4)ccc3n2)c1 [Compound 28, 2-(3-methoxyphenyl)-7-(4-methyl-1,4-diazepan-1-yl)-4H-pyrido[1,2-a]pyrimidin-4-one]	130 to 132	** (a fold increase between >1.2 and ≤1.35 is indicated by two stars (**))	3 to 30	
COc1ccc(-c2cc(=O)n3cc(N4CCN[C@@H](C)C4)ccc3n2)cc1OC [Compound 30, 2-(3,4-dimethoxyphenyl)-7-[(3S)-3-methylpiperazin-1-yl]-4H-pyrido[1,2-a]pyrimidin-4-one]	153 to 158	**** (a fold increase between >1.5 and ≤1.65 is indicated by four stars (****))	< 0.1	** (an EC1.5× between >1 μM and ≤3 μM is indicated by two stars (**))
O=c1cc(-c2ccc3c(c2)OCCO3)nc2ccc(N3CCNCC3)cn12 [Compound 31, 2-(2,3-dihydro-1,4-benzodioxin-6-yl)-7-(piperazin-1-yl)-4H-pyrido[1,2-a]pyrimidin-4-one]	230 to 232	* (A maximum fold increase of ≤1.2 is indicated by one star (*))	1 to 3	
C[C@H]1CN(c2ccc3nc(-c4ccc5c(c4)OCCO5)cc(=O)n3c2)CCN1 [Compound 32, 2-(2,3-dihydro-1,4-benzodioxin-6-yl)-7-[(3S)-3-methylpiperazin-1-yl]-4H-pyrido[1,2-a]pyrimidin-4-one]	205 to 207	* (A maximum fold increase of ≤1.2 is indicated by one star (*))	1 to 3	

Further lines, with some results ahead:

melting point [°C]	Structure (SMILES)	maximum fold (Fold) increase of Smn protein [1]	EC (1.5-fold increase) [2] [µM]	EC1.5x for Smn protein expression [1]
138 to 140	COc1ccc(-c2cc(=O)n3cc(N4CCNC(C)(C)C4)ccc3n2)cc1OC [Compound 7, 2-(3,4-dimethoxyphenyl)-7-(3,3-dimethylpiperazin-1-yl)-4H-pyrido[1,2-a]pyrimidin-4-one]	*** (a fold increase between >1.35 and ≤1.5 is indicated by three stars (***))	0.3 to 1	
159 to 162	CCN1CCN(c2ccc3nc(-c4ccc(OC)c(OC)c4)cc(=O)n3c2)CC1 [Compound 9, 2-(3,4-dimethoxyphenyl)-7-(4-ethylpiperazin-1-yl)-4H-pyrido[1,2-a]pyrimidin-4-one]	*** (a fold increase between >1.35 and ≤1.5 is indicated by three stars (***))	1 to 3	
137 to 141	COc1ccc(-c2cc(=O)n3cc(N4CCCN(C)CC4)ccc3n2)cc1 [Compound 16, 2-(4-methoxyphenyl)-7-(4-methyl-1,4-diazepan-1-yl)-4H-pyrido[1,2-a]pyrimidin-4-one]	* (A maximum fold increase of ≤1.2 is indicated by one star (*))	1 to 3	
195 to 197	C[C@@H]1CN(c2ccc3nc(-c4ccc5c(c4)OCO5)cc(=O)n3c2)CCN1 [Compound 20, 2-(1,3-benzodioxol-5-yl)-7-[(3R)-3-methylpiperazin-1-yl]-4H-pyrido[1,2-a]pyrimidin-4-one]	**** (a fold increase between >1.5 and ≤1.65 is indicated by four stars (****))	1 to 3	** (an EC1.5× between >1 μM and ≤3 μM is indicated by two stars (**))
198 to 201	C[C@@H]1CN(c2ccc3nc(-c4ccc5c(c4)OCO5)cc(=O)n3c2)C[C@H](C)N1 [Compound 21, 2-(1,3-benzodioxol-5-yl)-7-[(3R,5S)-3,5-dimethylpiperazin-1-yl]-4H-pyrido[1,2-a]pyrimidin-4-one]	* (A maximum fold increase of ≤1.2 is indicated by one star (*))	3 to 30	
147 to 149	COc1cccc(-c2cc(=O)n3cc(N4CCNCC4)ccc3n2)c1 [Compound 22, 2-(3-methoxyphenyl)-7-(piperazin-1-yl)-4H-pyrido[1,2-a]pyrimidin-4-one]	*** (a fold increase between >1.35 and ≤1.5 is indicated by three stars (***))	0.3 to 1	** (an EC1.5× between >1 μM and ≤3 μM is indicated by two stars (**))
173 to 175	COc1cccc(-c2cc(=O)n3cc(N4CCN(C)CC4)ccc3n2)c1 [Compound 23, 2-(3-methoxyphenyl)-7-(4-methylpiperazin-1-yl)-4H-pyrido[1,2-a]pyrimidin-4-one]	*** (a fold increase between >1.35 and ≤1.5 is indicated by three stars (***))	3 to 30	
164 to 166	COc1cccc(-c2cc(=O)n3cc(N4CCN[C@H](C)C4)ccc3n2)c1 [Compound 24, 2-(3-methoxyphenyl)-7-[(3R)-3-methylpiperazin-1-yl]-4H-pyrido[1,2-a]pyrimidin-4-one]	*** (a fold increase between >1.35 and ≤1.5 is indicated by three stars (***))	1 to 3	* (An EC1.5× for Smn protein expression between >3 μM and ≤10 μM is indicated by one star (*))
189 to 191	COc1cccc(-c2cc(=O)n3cc(N4C[C@@H](C)N[C@@H](C)C4)ccc3n2)c1 [Compound 25, 7-[(3R,5S)-3,5-dimethylpiperazin-1-yl]-2-(3-methoxyphenyl)-4H-pyrido[1,2-a]pyrimidin-4-one]	* (A maximum fold increase of ≤1.2 is indicated by one star (*))	1 to 3	

From patent publication US11753407B2, “Compounds for treating spinal muscular atrophy” (PTC Therapeutics, Inc., priority 2012, dated 2023)
